Data from article PMC7769561, “Antileishmanial activity of synthetic analogs of the naturally occurring quinolone alkaloid N-methyl-8-methoxyflindersin” (PLoS ONE, 2020).
Values after ≈ are worked out from the molar mass of the structure shown. Values joined by “and” are separate entries in the source; they are usually repeats but may differ in a detail not shown here. Equal values may be shown once. “Also recorded” adds a separate entry of the source. Read-outs that look alike come from different tables or passages of the source.

What was measured:
[1] = system: L. (V.) panamensis promastigotes; experiment: Antileishmanial activity in L. (V.) panamensis promastigotes (resazurin, 72 h); assay type: cell-based, Leishmania (Viannia) panamensis
Experimental: They were treated with quinoline alkaloid–like compounds at a concentration of 100, 10, 1, 0.1, and 0.01 μg/mL for 72 h at 26°C. Next, we determined antileishmanial activity using the resazurin method (Sigma-Aldrich). Promastigotes treated with amphotericin B (Sigma-Aldrich) and pentamidine (Sanofi-Aventis, Gentilly, France) were used as parasite death (positive) controls. Results were expressed as the medial effective concentration (EC50) using Prism GraphPad software for nonlinear regression analysis (https://www.graphpad.com/scientific-software/prism/).
(§1) All assays required at least three independently duplicated experiments. We determined cytotoxicity against hMDMs and effectivity in L. (V) panamensis promastigotes according to each treatment’s mortality (compound and concentration) using Eq 1, where the control mean fluorescence intensity (MFI) was 100% viability: Validityinhibition(%)=100−[MIFexposedcells/MIFunexposedcells×100] (1)
(§2) We used GraphPad Prism nonlinear regression analysis to estimate the percentage mortality with regard to CC50 and EC50. […] The antileishmanial activity with regard to promastigotes was classified as active according to Eq 2: Active=EC50<[LC50/2], (2) where LC50 is the median lethal concentration. We also used GraphPad Prism nonlinear regression analysis to determine the intracellular antileishmanial activity (concentration vs. response), depending on the infection (number of infected cells) and parasite burden (number of parasites/cell) obtained in experimental conditions. Parasite inhibition was estimated using Eq 3, where the plate MFI is 100% parasites: Infectioninhibition(%)=100−[(MIFexposedparasites/MIFunexposedparasites×100)] (3)

[2] = system: L. (V.) panamensis intracellular amastigotes; experiment: Antileishmanial activity in L. (V.) panamensis intracellular amastigotes in hMDMs; assay type: cell-based, Leishmania (Viannia) panamensis; conditions: for SI (selectivity index = CC50/EC50): CC50 hMDMs / EC50 intracellular amastigotes; for EC50 Intracellular amastigotes: amastigotes in hMDMs, 72 h, ± SD
Experimental: Next, 100 μL of the suspension was cultured in 96-well plates and infected with L. (V.) panamensis promastigotes (HMOM/COL/87/UA-140) at a 10:1 parasite:cell ratio. We incubated the plates in a 5% CO2 atmosphere for 4 h at 35°C. After incubation, we removed noninternalized parasites by washing the cells with 0.9% NaCl saline solution (Baxter International, Deerfield, IL, USA). The cells were incubated again for 24 h and then treated with each quinoline alkaloid–like compound at a concentration of 100, 10, 1, 0.1, and 0.01 μg/mL in a 5% CO2 atmosphere for 72 h at 36°C. Next, we quantified the percentage of infected cells using fluorescence microscopy, as previously described by Pérez-Cordero in 2011 [23], and quantified the parasite load (amount of intracellular promastigotes and amastigotes per cell) using Giemsa staining and flow cytometry (Cytomics FC 500 MPL; Beckman Coulter, Brea, CA, USA). […] Results were expressed as EC50 using Prism GraphPad software’s probit nonlinear regression analysis (https://www.graphpad.com/scientific-software/prism/).
as §2
The percentage inhibition was used to calculate EC50 by nonlinear regression analysis (fluorescence microscopy), while the parasite burden was evaluated as the percentage of intracellular promastigotes and amastigotes in 100 infected cells (Giemsa staining). […] The selectivity index (SI) was estimated using the following formula: SI=CC50/EC50

[3] = system: L. (V.) panamensis-infected hMDMs; experiment: Transmission electron microscopy of L. (V.) panamensis-infected hMDMs; assay type: cell-based, human; conditions: compound at EC50, 72 h, TEM; for Cell membrane (ultrastructural modification grade): key: -: no alteration/absence; +: low alteration/low presence; ++: alteration/moderate presence; +++: serious disturbance/abundant presence; for LB (lipid bodies, grade): key: -: no alteration/absence; +: low alteration/low presence; ++: alteration/moderate presence; +++: serious disturbance/abundant presence; for Mitochondria (ultrastructural modification grade): key: -: no alteration/absence; +: low alteration/low presence; ++: alteration/moderate presence; +++: serious disturbance/abundant presence; for Nucleus (ultrastructural modification grade): key: -: no alteration/absence; +: low alteration/low presence; ++: alteration/moderate presence; +++: serious disturbance/abundant presence
From the text: (§3) This procedure involved including fresh resin and 100–200-nm-wide ultrafine cuts observed by TEM (100X–10.000X) (HITACHI-HU-12; Hitachi, Tokyo, Japan).

[4] = Treatment toxicity in hamsters (live weight, ALT, creatinine, BUN); assay type: in vivo, golden hamster (Mesocrisetus auratus)
From the text: (§4) The hamsters were monitored every 4 weeks to assess their appearance and weight and the lesion size. We categorized each compound’s effectiveness pre- and posttreatment as follows: (i) cure (complete disappearance of lesions), (ii) improvement (>10% reduced lesion area), and (iii) therapeutic failure or nonresponse (increased lesion size). The health status was monitored weekly for 3 months (12 weeks) posttreatment. After 3 months, the hamsters were euthanized in a CO2 chamber. We performed histopathological analysis after necropsy of the affected tissues and organs. In addition, we evaluated treatment cytotoxicity using LW monitoring and biochemical parameters (alanine aminotransferase [ALT], creatinine, and blood urea nitrogen [BUN]) pretreatment and 45 days after ointment administration.

[5] = system: L. (V.) panamensis (MHOM/COL/87/UA140-EGFP); experiment: Therapeutic in vivo response in hamsters with experimental cutaneous leishmaniasis; set-up: species or system golden hamster (Mesocrisetus auratus)
From the text: We used a golden hamster (Mesocrisetus auratus) model to evaluate the therapeutic response of synthetic alkaloid compounds 2 and 8. Male and female 6-week-old hamsters with a mean live weight (LW) of 120 g were infected by a dorsal intradermic injection of L. (V.) panamensis (MHOM/COL/87/UA140-EGFP) promastigotes. After the infected hamsters developed ulcers, they were randomly divided into three groups (n = 6 each) and treated topically with 1% ointment formulated from compounds 2 and 8.
as §4
The in vivo efficacy of compounds 1, 2, and 8 was expressed as a percentage cure, improvement, or nonresponse compared to the beginning of treatment. Efficacy was evaluated in vivo to compare percentages, the frequency of change, and treatment cytotoxicity in the hamster model. We used GraphPad Prism to determine ROS and NO production and the apoptotic cell percentage. One- or two-way analysis of variance (ANOVA; response–time kinetics) was used to compare treatments after confirming normal data distribution. P < 0.05 was considered statistically significant by comparing untreated cells (experiments on untreated hMDMs) with infected cells (experiments on untreated and treated hMDMs).

hMDMs = experiment: Cytotoxicity in hMDMs (resazurin, 72 h); conditions: class by CC50
Experimental: (§5) We isolated hMDMs from buffy coats donated by the Institute of Local Science (Biotechnology and Health Innovation, Bogotá, Colombia) and spun them in Lymphoprep density gradient medium (Stem-Cell, Vancouver, Canada).
(§6) Next, we added 100 μL of this culture to each quinoline alkaloid–like compound at a concentration of 200, 20, 2, 0.2, and 0.02 μg/mL. […] Cells treated with amphotericin B (Sigma-Aldrich) were used as cell apoptosis (positive) controls. Results were expressed as the medial cytotoxic concentration (CC50) using Prism GraphPad software for nonlinear regression analysis (https://www.graphpad.com/scientific-software/prism/).
as §1, §2

[6] = Cytotoxicity in hMDMs (resazurin, 72 h); conditions: human
Experimental: as §5, §6, §1, §2

[7] = system: L. (V.) panamensis intracellular amastigotes; experiment: Transmission electron microscopy of L. (V.) panamensis intracellular amastigotes in hMDMs; assay type: cell-based, Leishmania (Viannia) panamensis; set-up: Nucleus (ultrastructural alteration grade) / Vacuoles (ultrastructural alteration grade): key: -: no alteration/absence; +: low alteration/low presence; ++: alteration/moderate presence; +++: serious disturbance/abundant presence; conditions: compound at EC50, 72 h, TEM
From the text: as §3

[8] = system: L. (V.) panamensis-infected hMDMs; experiment: NO production in L. (V.) panamensis-infected hMDMs (DAF-FM flow cytometry); assay type: cell-based, human; conditions: compound at EC50, 24, 48 and 72 h
Experimental: (§7) Next, we detached the cells with ethylenediaminetetraacetic acid (EDTA)/trypsin (Lonza, MD, USA) and 2',7'-dichlorodihydrofluorescein diacetate (H2DCFDA) tagged on a 5 μM fluorescent tube (Sigma-Aldrich) in order to identify intracellular ROS and/or 4-amino-5-methylamino-2′,7′-difluorofluorescein (DAF-FM; Sigma-Aldrich) for NO production in a 5% CO2 atmosphere for 45 min at 37°C. ROS and NO were quantified using flow cytometry (FACS Canto II) at a wavelength of 480 nm. Untreated cells were used as negative controls, while cells treated with 0.0001% H2O2 and 1 μM phorbol myristate acetate were used as ROS production (positive) controls. LPS (10 ng/mL) and phytohemagglutinin (PHA-M) (10 μL/mL) (Invitrogen) were used as positive controls for NO production.

[9] = system: L. (V.) panamensis-infected hMDMs; experiment: ROS generation in L. (V.) panamensis-infected hMDMs (H2DCFDA flow cytometry); assay type: cell-based, human; conditions: compound at EC50, 4, 24, 48 and 72 h
Experimental: as §7

[10] = L. (V.) panamensis promastigotes, ± SD
[11] = L. (V.) panamensis promastigotes, ± SD, read-out: EC50 Intracellular promastigotes (converted)
[12] = hamsters, topical 1% ointment, 3 months posttreatment, n = 6

Compound: Cc1cc2ncccc2c2nc(N)n(C)c12 [Compound 7, 3,4-dimethyl-3H-imidazol [4.5f]-quinoline-2-amine]
- EC50 Intracellular promastigotes [1, 10]: 26.5 ± 5.8 µg/mL (≈ 125 µM)
- EC50 [1, 11]: 134 µM
- SI (selectivity index = CC50/EC50) [2]: 1.70
- EC50 Intracellular amastigotes [2]: 55.8 ± 8.3 µg/mL (≈ 263 µM)

Compound: Nc1ccc2cccc(O)c2n1 [Compound 8, 2-amino-8-hydroxyquinoline]
- Cell membrane (ultrastructural modification grade) [3]: -
- LB (lipid bodies, grade) [3]: -
- Mitochondria (ultrastructural modification grade) [3]: +
- Nucleus (description) [3]: Abnormal distribution of chromatin; also recorded: Nuclear membrane alteration
- Nucleus (ultrastructural modification grade) [3]: +++
- PV (description) [3]: Individuals, attached to the parasite
- PV (parasitophorous vacuoles, grade) [3]: +
- Parasites (grade) [3]: +
- Vacuoles (description) [3]: Double membrane (autophagic-digestives)
- Vacuoles (ultrastructural modification grade) [3]: +++
- Serum BUN level ([4]; compared to before treatment): significantly decreased
- Cytotoxicity-related clinical manifestations ([4]; topical 1% ointment): No cytotoxicity-related clinical manifestations
- Live weight posttreatment ([4]; topical 1% ointment): no evident changes during treatment
- Histopathologic analysis of the skin, cured hamsters ([5]; hamsters cured by treatment, hematoxylin/eosin): mixed leucocyte infiltratation
- Lesion size during treatment ([5]; hamsters, topical 1% ointment): significantly reduced lesions
- Improvement (reduced lesion size), percentage of the experimental group [5, 12]: 50%
- No effect (poor response), percentage of the experimental group [5, 12]: 16.6%
- Total cure (healing), percentage of the experimental group [5, 12]: 33.3%
- Cytotoxicity class toward hMDMs (hMDMs): high (high if CC50 < 100 μg/mL)
- CC50 at 72 h [6]: 5.5 µg/mL and 34 µM
- EC50 ([1]; read-out: EC50 Intracellular promastigotes): 1.6 µg/mL and 10 µM
- Cell membrane (ultrastructural alteration grade) [7]: -
- Flagellum (flagellar/axonema pocket) (description) [7]: Membrane swelling
- Flagellum (flagellar/axonema pocket) (grade) [7]: +++
- LB (lipid bodies, grade) [7]: -
- Mitochondria/Kinetoplasts (description) [7]: Membrane swelling
- Mitochondria/Kinetoplasts (ultrastructural alteration grade) [7]: +++
- Nucleus (description) [7]: Abnormal distribution of chromatine
- Nucleus (ultrastructural alteration grade) [7]: ++
- PV (description) [7]: Individuals attached to the parasite
- PV (parasitophorous vacuoles, grade) [7]: +
- Vacuoles (description) [7]: Double membrane (autophagic-digestives)
- Vacuoles (ultrastructural alteration grade) [7]: +++
- NO production compared to untreated infected hMDMs [8]: do not modulate the induction of NO production
- ROS generation compared to infected control cells [9]: no significant variations
- Antileishmanial activity class ([2]; intracellular amastigotes, class by EC50): high (high if EC50 < 25 μg/mL)

Compound: COc1ccccc1-c1cc(C(=O)O)c2ccc(C)c(C)c2n1 [Compound 6, carboxylic acid-7,8-tetrahydro-quinoline]
- EC50 Intracellular promastigotes [1, 10]: 61.3 ± 29.6 µg/mL (≈ 199 µM)
- EC50 [1, 11]: 240 µM
- SI (selectivity index = CC50/EC50) [2]: 1.89
- EC50 Intracellular amastigotes [2]: 46.5 ± 9.4 µg/mL (≈ 151 µM)

Compound: COc1ccc2c(OC)c3ccoc3nc2c1OC [Compound 5, 4,7,8-trimetoxifure [2,3-b]-quinoline]
- EC50 Intracellular promastigotes [1, 10]: 66.4 ± 13 µg/mL (≈ 256 µM)
- EC50 [1, 11]: 256 µM
- SI (selectivity index = CC50/EC50) [2]: 1.73
- EC50 Intracellular amastigotes [2]: 61.7 ± 1.1 µg/mL (≈ 238 µM)

Compound: CCCc1c(CC)nc2ccccc2c1C(=O)O [Compound 3, carboxylic acid 2-ethyl-3-propyl-4-quinolinine]
- Cytotoxicity class toward hMDMs (hMDMs): moderate (moderate if CC50 from 100 to <200 μg/mL)
- EC50 Intracellular promastigotes [1, 10]: 93.8 ± 6.3 µg/mL (≈ 386 µM)
- EC50 [1, 11]: 496 µM
- SI (selectivity index = CC50/EC50) [2]: 1.27
- EC50 Intracellular amastigotes [2]: 121.9 ± 6.2 µg/mL (≈ 501 µM)
